We go through 16 molecules from patent US10752616B2, “Bicycloheteroaryl-heteroaryl-benzoic acid compounds as retinoic acid receptor beta (RARβ) agonists” (King's College London, priority 2014, dated 2020).

Structures are written as SMILES. Entries after “also recorded” stand apart in the source; their conditions may differ.

Experiment [1] addresses T1, RARβ (Homo sapiens (Human), UniProt P10826). To be noted: transactivation, relative to atRA = 1; cited from earlier work.
Target sequence in this assay (P10826 whole entry, species assumed): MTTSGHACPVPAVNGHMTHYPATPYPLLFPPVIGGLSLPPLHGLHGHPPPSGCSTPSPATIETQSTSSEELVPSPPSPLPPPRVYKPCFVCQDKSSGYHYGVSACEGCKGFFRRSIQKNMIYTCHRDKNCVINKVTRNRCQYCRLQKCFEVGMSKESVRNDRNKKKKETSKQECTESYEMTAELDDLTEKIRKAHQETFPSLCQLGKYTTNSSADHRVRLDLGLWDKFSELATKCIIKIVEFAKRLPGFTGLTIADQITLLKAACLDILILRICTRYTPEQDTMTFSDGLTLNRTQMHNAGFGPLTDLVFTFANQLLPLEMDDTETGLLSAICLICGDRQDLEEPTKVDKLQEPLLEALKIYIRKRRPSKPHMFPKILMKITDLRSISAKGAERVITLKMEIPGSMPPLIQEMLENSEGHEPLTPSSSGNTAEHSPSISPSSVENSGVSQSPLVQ
For experiment [2], the target named is T2, RARγ (Homo sapiens (Human), UniProt P13631). Put plainly: Subtype-specific transactivation from Yoshimura et al., 2000, RARγ. Type of experiment: cell-based. To be noted: ratio of relative EC30 (transactivation), Table 6.
Target sequence in this assay (P13631 whole entry, species assumed): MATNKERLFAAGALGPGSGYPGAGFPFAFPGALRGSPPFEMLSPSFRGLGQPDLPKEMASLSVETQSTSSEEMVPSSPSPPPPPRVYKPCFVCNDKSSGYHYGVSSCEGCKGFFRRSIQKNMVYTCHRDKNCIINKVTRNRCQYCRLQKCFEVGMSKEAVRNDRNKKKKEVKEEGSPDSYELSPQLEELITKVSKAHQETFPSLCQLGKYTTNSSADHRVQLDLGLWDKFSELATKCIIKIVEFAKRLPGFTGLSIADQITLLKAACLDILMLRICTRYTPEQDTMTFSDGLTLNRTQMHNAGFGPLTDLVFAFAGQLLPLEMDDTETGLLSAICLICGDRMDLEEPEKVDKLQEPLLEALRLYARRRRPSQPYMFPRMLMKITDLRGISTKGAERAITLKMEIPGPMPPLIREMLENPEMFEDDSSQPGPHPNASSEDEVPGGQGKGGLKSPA
For experiment [3], the target named is T3, RARα (Homo sapiens (Human), UniProt P10276). Nature of the experiment: Subtype-specific transactivation from Yoshimura et al., 2000, RARα. Type of experiment: cell-based. To be noted: ratio of relative EC30 (transactivation), Table 6.
Target sequence in this assay (P10276 whole entry, species assumed): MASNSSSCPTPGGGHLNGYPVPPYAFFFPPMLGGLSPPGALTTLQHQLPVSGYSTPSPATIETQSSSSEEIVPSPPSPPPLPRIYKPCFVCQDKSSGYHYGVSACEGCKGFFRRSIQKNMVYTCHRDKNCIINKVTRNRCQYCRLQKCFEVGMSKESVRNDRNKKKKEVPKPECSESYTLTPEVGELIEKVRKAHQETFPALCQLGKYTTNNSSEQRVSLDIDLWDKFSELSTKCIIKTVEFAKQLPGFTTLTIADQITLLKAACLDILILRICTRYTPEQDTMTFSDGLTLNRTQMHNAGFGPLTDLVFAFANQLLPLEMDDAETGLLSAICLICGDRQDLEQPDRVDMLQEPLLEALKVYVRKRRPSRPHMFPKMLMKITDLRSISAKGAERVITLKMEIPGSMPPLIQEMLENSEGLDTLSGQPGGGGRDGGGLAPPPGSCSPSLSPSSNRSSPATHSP
Experiment [4] deals with T3, RARα. Put plainly: Binding affinity from Yoshimura et al., 2000, RARα. To be noted: ratio of relative IC50 (binding), Table 5.
Target sequence in this assay (P10276 whole entry, species assumed): as above
The target in experiment [5] is T3, RARα. To be noted: transactivation, relative to atRA = 1; cited from earlier work.
Target sequence in this assay (P10276 whole entry, species assumed): as above
In experiment [6] the target is T2, RARγ. To be noted: transactivation, relative to atRA = 1; cited from earlier work.
Target sequence in this assay (P13631 whole entry, species assumed): as the sequence (P13631 whole entry, species assumed) above
The subject of experiment [7] is cerebellar neurons. Put plainly: Neurite outgrowth assay, cerebellar neurons in the presence of myelin/MAG. Type of experiment: cell-based, rat. To be noted: cerebellar neurons, in the presence of MAG/myelin, with CD2019. As to the method:
Cerebellar neurons isolated from post-natal day 3 rat pups were cultured over monolayers of parental 3T3 cells in control media, or media supplemented with a recombinant MAG-Fc chimera (R&D Systems) used at a final concentration of 20 μg/mL MAG-Fc. The monolayers were established for 24 hours prior to addition of the neurons and the co-cultures were maintained for approximately 21 hours. Following careful fixation with 4% paraformaldehyde, the neurons were immuno-stained with a GAP-43 antibody (from Graham Wilkin, Imperial College), dilution of 1:500, and the mean length of the longest neurite per cell was measured for approximately 120-150 neurons as previously described (see, e.g., Williams et al., 2005). DRG and cortical explants were obtained from adult rats, they were cultured in cellogen as previously described (see, e.g., Corcoran and Maden, 1999). Three explants per treatment were used. Neurite outgrowth was assessed 3 days later by immunohistochemistry with NF200 (Sigma, dilution of 1:200). The average lengths of the neurites were measured using image pro plus software. Media consisted of DMEM-F12 (Invitrogen) containing N2 (Invitrogen) supplemented with glucose (33 mM) and glutamine (2 mM).

The target of experiment [8] is T4, RARα (Mus musculus (Mouse), UniProt P11416). Nature of the experiment: Transactivation assay, mouse RARα. To be noted: Table 3. Type of experiment: cell-based. As to the method:
(§1) Transcriptional transactivation assays were performed with gal4 fusion receptor constructs, created using each of the RAR ligand binding domains of either mouse or human, co-transfected with the pFR-luc (Stratagene) reporter construct in COS-7 cells.
(§2) Briefly, on day 1, 96 well plates were seeded with 8000 cells per well then left to recover overnight. On day 2, the cells were co-transfected with 100 ng of reporter plasmid and 10 ng of the appropriate receptor plasmid per well using lipofectamine (Invitrogen). On day 3, the lipofectamine containing media was replaced by a DMEM without phenol red, followed by the addition of test compound dissolved in 1 μL of DMSO to each well's 100 μL total volume. Finally, on day 4, the cells were lysed and their luciferase substrate was provided by the BrightGlo™ reagent (Promega), the plates were then read on the MicroBeta TriLux™ (Perkin Elmer).
(§3) Data for test compounds are quoted as EC50 values. Where replicate data has been generated, the data are quoted as the mean EC50 from the separate experiments.

Experiment [9] addresses T5, RARβ (Mus musculus (Mouse), UniProt P22605). Put plainly: Transactivation assay for RARβ (gal4-RAR fusion, pFR-luc reporter, COS-7 cells), Table 2. To be noted: COS-7 reporter, mean of three or more determinations, species not stated (method: mouse or human). The format is cell-based. As to the method: as §1, §2, §3
(§4) EC50's values are reported as mean values of three or more determinations.

The target in experiment [10] is T3, RARα. Nature of the experiment: Transactivation assay, human RARα. The format is cell-based. To be noted: Table 3; Human. As to the method:
as §1, §2, §3
Target sequence in this assay (P10276 183-417): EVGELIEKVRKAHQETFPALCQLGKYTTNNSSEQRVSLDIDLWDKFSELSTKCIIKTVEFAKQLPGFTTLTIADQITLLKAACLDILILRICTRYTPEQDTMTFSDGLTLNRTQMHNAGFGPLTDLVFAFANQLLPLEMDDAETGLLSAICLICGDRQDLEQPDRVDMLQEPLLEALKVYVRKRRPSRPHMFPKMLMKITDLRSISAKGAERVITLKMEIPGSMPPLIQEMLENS

For experiment [11], the target named is T6, RARγ (Mus musculus (Mouse), UniProt P18911). Put plainly: Transactivation assay, mouse RARγ. Type of experiment: cell-based. Conditions: Table 3. As to the method: as §1, §2, §3
Experiment [12] deals with T2, RARγ. Put plainly: Transactivation assay, human RARγ. To be noted: Table 3; Human. The format is cell-based. As to the method: as §1, §2, §3
Target sequence in this assay (P13631 185-419): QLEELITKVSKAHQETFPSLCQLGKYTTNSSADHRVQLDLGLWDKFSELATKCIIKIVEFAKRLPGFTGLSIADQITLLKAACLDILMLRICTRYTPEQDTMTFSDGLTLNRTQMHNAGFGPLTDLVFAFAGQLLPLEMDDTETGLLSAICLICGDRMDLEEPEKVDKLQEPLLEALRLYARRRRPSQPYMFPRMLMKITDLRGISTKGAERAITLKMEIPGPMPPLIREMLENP
The target in experiment [13] is T6, RARγ. Put plainly: Transactivation assay for RARγ (gal4-RAR fusion, pFR-luc reporter, COS-7 cells), Table 2. Type of experiment: cell-based. Conditions: for EC50: Table 2, COS-7 reporter, mean of three or more determinations, inactive = no agonist action at highest concentration tested; for RARγ/RARβ ratio: fold-selectivity for RARβ over RARγ, >1 = selective for RARβ. As to the method:
as §1, §2, §3, §4

In experiment [14] the target is T5, RARβ. Put plainly: Transactivation assay, mouse RARβ. The format is cell-based. Conditions: Table 3, read-out: RARβ potency - EC50. As to the method: as §1, §2, §3
Experiment [15] addresses T4, RARα. Nature of the experiment: Transactivation assay for RARα (gal4-RAR fusion, pFR-luc reporter, COS-7 cells), Table 2. The format is cell-based. Conditions: for EC50: Table 2, COS-7 reporter, mean of three or more determinations, inactive = no agonist action at highest concentration tested; for RARα/RARβ ratio: fold-selectivity for RARβ over RARα, >1 = selective for RARβ. As to the method: as §1, §2, §3, §4

Experiment [16] concerns the target T1, RARβ. Put plainly: Transactivation assay, human RARβ. Conditions: Table 3; Human; read-out: RARβ potency - EC50. The format is cell-based. As to the method:
as §1, §2, §3
Target sequence in this assay (P10826 183-417): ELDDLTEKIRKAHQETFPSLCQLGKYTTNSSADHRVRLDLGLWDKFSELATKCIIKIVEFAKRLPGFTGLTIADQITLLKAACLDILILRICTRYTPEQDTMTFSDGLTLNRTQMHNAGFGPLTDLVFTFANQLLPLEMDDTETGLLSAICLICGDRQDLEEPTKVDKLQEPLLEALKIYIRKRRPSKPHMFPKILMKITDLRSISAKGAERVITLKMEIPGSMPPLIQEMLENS

T5 sequence (P22605 210-444): as the sequence (P10826 183-417) above
T4 sequence (P11416 183-417): as the sequence (P10276 183-417) above, with R165K counted along it
T6 sequence (P18911 185-419): as the sequence (P13631 185-419) above

Consider `O=C(O)c1ccc(-c2ccc(-c3cc4c(Cl)ccc(Cl)c4o3)[nH]2)cc1` [1c], for which the “RARβ relative EC30” value in experiment [1] was 110 ± 30. Also, in experiment [2], the RARγ/RARβ ratio is listed as 7.45. For the same molecule, the RARα/RARβ ratio stood at 0.006 in [3] and 0.0022 in [4]. Besides, the “RARα relative EC30” value in experiment [5] was 0.70 ± 0.15. For the same molecule, the “RARγ relative EC30” value in experiment [6] is recorded as 820 ± 290.

Take `O=c1cc(N2CCOCC2)oc2c(-c3ccccc3)cccc12` [LY295002]: the “Effect on RARβ agonist (CD2019) mediated neurite outgrowth” value in experiment [7] is given as “neurite outgrowth was severely impeded”.

Turning to `O=C(O)c1ccc(-c2ccc(-c3cc4c(F)ccc(F)c4o3)[nH]2)cc1` [1e], in [1], the “RARβ relative EC30” value is 210 ± 40. Further, the RARγ/RARβ ratio in experiment [2] is given as 8.33. Further, the RARα/RARβ ratio in [3] is given as 0.0038. Besides, the “RARα relative EC30” value in [5] is 0.80 ± 0.17. Moreover, the “RARγ relative EC30” value in [6] is listed as 1750 ± 750.

On to `O=C(O)c1ccc(-c2ccc(-c3cc4c(C(F)(F)F)ccc(F)c4o3)[nH]2)cc1` [1f], for which the “RARβ relative EC30” value in [1] is given as 8.5 ± 0.4. Moreover, in experiment [2], the RARγ/RARβ ratio is listed as 12.9. The results for the RARα/RARβ ratio in experiment [3] and in experiment [4] were 0.034 and 0.0038, respectively. In addition, the “RARα relative EC30” value in experiment [5] is given as 0.29 ± 0.04. Moreover, the “RARγ relative EC30” value in [6] is reported as 110 ± 20.

On to `Cc1ccc(C)c2oc(-c3ccc(-c4ccc(C(=O)O)cc4)[nH]3)cc12` [1b], for which the “RARβ relative EC30” value in [1] is given as 25 ± 12. Further, the RARγ/RARβ ratio in experiment [2] stood at 9.60. For the same molecule, the RARα/RARβ ratio in experiment [3] is 0.148; in experiment [4] it was 0.0029. The “RARα relative EC30” value in experiment [5] is recorded as 0.37 ± 0.02. The “RARγ relative EC30” value in experiment [6] is reported as 240 ± 30.

As to `Cc1ccc(C)c2sc(-c3ccc(-c4ccc(C(=O)O)cc4)[nH]3)cc12` [1j], the “RARβ relative EC30” value in [1] is 130 ± 60. For the same molecule, in [2], the RARγ/RARβ ratio stood at 6.46. The RARα/RARβ ratio in [3] was found to be 0.010. Besides, in experiment [5], the “RARα relative EC30” value is reported as 1.3 ± 0.6. In addition, in experiment [6], the “RARγ relative EC30” value is listed as 840 ± 360.

For the molecule `CCCCCCOC(=O)[C@]1(O)C[C@@H]2O[C@@]1(C)n1c3ccccc3c3c4c(c5c6ccccc6n2c5c31)C(=O)NC4` [KT5720], the “Effect on RARβ agonist (CD2019) mediated neurite outgrowth” value in [7] is “little or no effect; also recorded: does not affect”.

For `Cc1ccc(C)c2oc(-c3nc(-c4ccc(C(=O)O)cc4Cl)no3)cc12` [BHBA-002, 3-Chloro-4-(5-(4,7-dimethylbenzofuran-2-yl)-1,2,4-oxadiazol-3-yl)benzoic acid], the “Selectivity over RARα” value in [8] and in experiment [10] was 12-fold in each case. Further, the EC50 amounted to 11.4 nM in [9]; 29 nM in [13]; 11.5 nM in experiment [14]; 136 nM in experiment [15]; 21.4 nM in experiment [16]. Besides, the “Selectivity over RARγ” value in experiment [11] is 3-fold; in experiment [12] it was 2-fold. Moreover, the RARγ/RARβ ratio in experiment [13] is on record as 2.5. The RARα/RARβ ratio in [15] amounted to 12.

Molecule `O=C(O)c1ccc(-c2noc(-c3cc4c(C(F)(F)F)ccc(F)c4o3)n2)cc1` [BHBA-019, 4-(5-(7-Fluoro-4-(trifluoromethyl)benzofuran-2-yl)-1,2,4-oxadiazol-3-yl)benzoic acid] had a concentration giving a half-maximal response (EC50) in experiment [9] of 2.5 nM. In experiment [13], the 50% effective concentration (EC50) was 5.3 nM and the RARγ/RARβ ratio is 2. In [15], the EC50 worked out at 19 nM and the RARα/RARβ ratio amounted to 7.6.

The molecule `Cc1ccc(C)c2oc(-c3nnc(-c4ccc(C(=O)O)c(F)c4)o3)cc12` [BHBA-037, 4-(5-(4,7-Dimethylbenzofuran-2-yl)-1,3,4-oxadiazol-2-yl)-2-fluorobenzoic acid] displayed an EC50 in [9] of 45 nM. Further, in experiment [13], the EC50 was 60 nM and the RARγ/RARβ ratio worked out at 1.3. In addition, in experiment [15], the response was half-maximal at 91 nM (EC50) and the RARα/RARβ ratio worked out at 2.

For the molecule `Cc1ccc(C(C)C)c2cc(-c3nc(-c4ccc(C(=O)O)cc4)no3)oc12` [BHBA-010, 4-(5-(4-Isopropyl-7-methylbenzofuran-2-yl)-1,2,4-oxadazol-3-yl)benzoic acid], the EC50 in experiment [9] is 2.9 nM. Moreover, in experiment [13], the concentration giving a half-maximal response (EC50) is 0.53 nM and the RARγ/RARβ ratio is reported as 0.18. Moreover, in experiment [15], the EC50 turned out to be 25 nM and the RARα/RARβ ratio was 8.

As for `Cc1cc(C(=O)O)ccc1-c1nc(-c2cc3c(C)ccc(C)c3o2)no1` [BHBA-029, 4-(3-(4,7-Dimethylbenzofuran-2-yl)-1,2,4-oxadiazol-5-yl)-3-methylbenzoic acid], the EC50 in [9] stood at 14 nM; in [13] it was 19 nM; in [15], 210 nM. The RARγ/RARβ ratio in experiment [13] came to 1.3. The RARα/RARβ ratio in [15] is reported as 15.

Regarding `Cc1ccc(C)c2oc(-c3nc(-c4ccc(C(=O)O)cc4Cl)ns3)cc12` [BHBA-039, 3-Chloro-4-(5-(4,7-dimethylbenzofuran-2-yl)-1,2,4-thiadiazol-3-yl)benzoic acid], the EC50 in experiment [9] was found to be 3.6 nM; in experiment [13], 13 nM; in [15], 65 nM.

Consider `Cc1ccc(C)c2oc(-c3nsc(-c4ccc(C(=O)O)cc4)n3)cc12` [BHBA-042, 4-(3-(4,7-Dimethylbenzofuran-2-yl)-1,2,4-thiadiazol-5-yl)benzoic acid], for which the EC50 in [9] came out at 3.1 nM; in [13] it was 2.3 nM; in experiment [15], 9.4 nM. In [13], the RARγ/RARβ ratio is listed as 0.74. Also, the RARα/RARβ ratio in [15] is given as 3.

Turning to `Cc1cc(C(=O)O)ccc1-c1nnc(-c2cc3c(C)ccc(C)c3o2)o1` [BHBA-035, 4-(5-(4,7-Dimethylbenzofuran-2-yl)-1,3,4-oxadiazol-2-yl)-3-methylbenzoic acid], the response in experiment [9] was half-maximal at 67 nM (EC50). In experiment [13], the midpoint of the response, the EC50, lay at 83 nM and the RARγ/RARβ ratio is reported as 1.2. Moreover, in experiment [15], the EC50 came out at 91 nM and the RARα/RARβ ratio was determined as 1.3.

`Cc1ccc(C)c2c(C)c(-c3nc(-c4ccc(C(=O)O)cc4Cl)no3)oc12` [BHBA-009, 3-Chloro-4-(5-(3,4,7-trimethylbenzofuran-2-yl)-1,2,4-oxadiazol-3-yl)benzoic acid]: the response in experiment [9] was half-maximal at 4.2 nM (EC50). Further, in experiment [13], the midpoint of the response, the EC50, lay at 11 nM and the RARγ/RARβ ratio is given as 2.6. In experiment [15], the EC50 was 32 nM and the RARα/RARβ ratio is 7.6.

In general, EC50 refers to the midpoint of the concentration-response curve.
